Data reported in patent US12605361B2, “Carboxylated psilocybin derivatives and methods of using” (Enveric Biosciences Canada Inc., priority 2020, dated 2026).

Tests used:
[1] = tested on: CHO-K1/Gα15 (−5-HT1A) cells; test: cAMP-Glo assay in −5-HT1A control cells (CHO-K1/Gα15); format: cell-based; details: −5HT1A cell cultures (control without 5-HT1A receptor); FIG. 14D-14F
Description: CHO-K1/Gα15 (GenScript, M00257) (−5-HT1A) and CHO-K1/5-HT1A/Gα15 (GenScript, M00330) (+5-HT1A) cells lines were used. Briefly, CHO-K1/Gα15 is a control cell line that constitutively expresses Gα15 which is a promiscuous Gq protein. This control cell line lacks any transgene encoding 5-HT1A receptors, but still responds to forskolin; thus, cAMP response to forskolin should be the same regardless of whether or not 5-HT1A agonists are present. Conversely, CHO-K1/5-HT1A/Gα15 cells stably express 5-HT1A receptor in the CHO-K1 host background. […] In +5-HT1A cells, Gα15 may be recruited in place of Gαi/o, which could theoretically dampen cAMP response (Rojas and Fiedler 2016, Front Cell Neurosci 10: 272). […] In contrast, tryptophan is not known to activate 5-HT1A receptors, and was thus used as a negative control. Cells were maintained in complete growth media as recommended by supplier (GenScript) which is constituted as follows: Ham's F12 Nutrient mix (HAM's F12, GIBCO #11765-047) with 10% fetal bovine serum (FBS) (Thermo Scientific #12483020), 200 μg/ml zeocin (Thermo Scientific #R25005) and/or 100 μg/ml hygromycin (Thermo Scientific #10687010). The cells were cultured in a humidified incubator with 37° C. and 5% CO2. Cells maintenance was carried out as recommended by the cell supplier. Briefly, vials with cells were removed from the liquid nitrogen and thawed quickly in 37° C. water bath. Just before the cells were completely thawed the vial's outside was decontaminated by 70% ethanol spray. […]
As 5-HT1A activation inhibits cAMP formation, the agonist activity of test molecules on 5-HT1A was measured via the reduction in the levels of cAMP produced due to application of 4 μM forskolin. The change in intracellular cAMP levels due to the treatment of novel molecules was measured using cAMP-Glo Assay kit (Promega #V1501). […] Reduced ATP caused reduced conversion of luciferin to oxyluciferin, conferring diminished luminescence as the result of 5-HT1A activation. […]

5-HT1A receptor = target: T1, 5-HT1A receptor (Homo sapiens, UniProt P08908); test: cAMP-Glo assay of 5-HT1A activation in +5-HT1A cells (CHO-K1/5-HT1A/Gα15); format: cell-based; details: for 5-HT1A binding activity from % cAMP levels trend: +5HT1A cell cultures; for 5-HT1A activity from luminescence (cAMP) trend: +5HT1A cell culture, FIG. 14B, 14C
T1 construct: host or cells: CHO-K1 stably expressing 5-HT1A and Gα15
T1 sequence (P08908 1-422): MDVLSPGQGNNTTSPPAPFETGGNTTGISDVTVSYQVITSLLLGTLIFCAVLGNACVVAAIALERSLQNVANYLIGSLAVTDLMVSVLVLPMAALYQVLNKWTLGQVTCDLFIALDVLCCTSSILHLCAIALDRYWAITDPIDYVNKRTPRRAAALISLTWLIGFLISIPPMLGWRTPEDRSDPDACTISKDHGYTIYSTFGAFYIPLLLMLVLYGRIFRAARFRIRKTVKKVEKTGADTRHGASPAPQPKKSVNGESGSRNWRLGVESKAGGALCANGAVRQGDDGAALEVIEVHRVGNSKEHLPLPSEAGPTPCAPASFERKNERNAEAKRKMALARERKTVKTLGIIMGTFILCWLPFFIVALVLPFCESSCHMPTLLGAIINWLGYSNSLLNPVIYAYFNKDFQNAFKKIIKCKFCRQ
Description: CHO-K1/Gα15 (GenScript, M00257) (−5-HT1A) and CHO-K1/5-HT1A/Gα15 (GenScript, M00330) (+5-HT1A) cells lines were used. Briefly, CHO-K1/Gα15 is a control cell line that constitutively expresses Gα15 which is a promiscuous Gq protein. This control cell line lacks any transgene encoding 5-HT1A receptors, but still responds to forskolin; thus, cAMP response to forskolin should be the same regardless of whether or not 5-HT1A agonists are present. Conversely, CHO-K1/5-HT1A/Gα15 cells stably express 5-HT1A receptor in the CHO-K1 host background. […] In +5-HT1A cells, Gα15 may be recruited in place of Gαi/o, which could theoretically dampen cAMP response (Rojas and Fiedler 2016, Front Cell Neurosci 10: 272). […] In contrast, tryptophan is not known to activate 5-HT1A receptors, and was thus used as a negative control. Cells were maintained in complete growth media as recommended by supplier (GenScript) which is constituted as follows: Ham's F12 Nutrient mix (HAM's F12, GIBCO #11765-047) with 10% fetal bovine serum (FBS) (Thermo Scientific #12483020), 200 μg/ml zeocin (Thermo Scientific #R25005) and/or 100 μg/ml hygromycin (Thermo Scientific #10687010). The cells were cultured in a humidified incubator with 37° C. and 5% CO2. Cells maintenance was carried out as recommended by the cell supplier. Briefly, vials with cells were removed from the liquid nitrogen and thawed quickly in 37° C. water bath. Just before the cells were completely thawed the vial's outside was decontaminated by 70% ethanol spray. The cell suspension was then retrieved from the vial and added to warm (37° C.) complete growth media, and centrifuged at 1,000 rpm for 5 minutes. The supernatant was discarded, and the cell pellet was then resuspended in another 10 ml of complete growth media, and added to the 10 cm cell culture dish (Greiner Bio-One #664160). The media was changed every third day until the cells were about 90% confluent. The ˜90% confluent cells were then split 10:1 for maintenance or used for experiment.
The change in intracellular cAMP levels due to the treatment of novel molecules was measured using cAMP-Glo Assay kit (Promega #V1501). Briefly, +5-HT1A cells were seeded on 1-6 columns and base −5-HT1A cells were seeded on columns 7-12 of the white walled clear bottom 96-well plate (Corning, #3903). Both cells were seeded at the density of 30,000 cells/well in 100 μl complete growth media and cultured 24 hrs in humidified incubator at 37° C. and 5% CO2. On the experiment day, the media of cells was replaced with serum/antibiotic free culture media. Then the cells were treated for 20 minutes with test molecules dissolved in induction medium ([…], 500 μM IBMX (isobutyl-1-methylxanthine, Sigma-Aldrich, Cat. #17018) and 100 μM (RO 20-1724, Sigma-Aldrich, Cat. #B8279)). Forskolin induced cAMP formation whereas IBMX and RO 20-1724 inhibited the degradation of cAMP. PKA was added to the lysate, mixed, and subsequently the substrate of the PKA was added. PKA was activated by cAMP, and the amount of ATP consumed due to PKA phosphorylation directly corresponded to cAMP levels in the lysate. Reduced ATP caused reduced conversion of luciferin to oxyluciferin, conferring diminished luminescence as the result of 5-HT1A activation. […] Note that compound (VI) is shown simply as (VI) along the x-axis. For FIGS A-C, error bars represent results of three experiments (n=3).

5-HT2A receptor = target: T2, 5-HT2A receptor (Homo sapiens, UniProt P28223); test: [3H]ketanserin competition binding assay (SPA) on membranes containing 5-HT2A; details: fixed (1 nM) [3H]ketanserin; FIG. 13B, 13C
T2 construct: purchased PerkinElmer ES-313-M400UA
Description: Evaluation of drug binding is an essential step to characterization of all drug-target interactions (Fang 2012, Exp Opin Drug Discov 7:969). The binding affinity of a drug to a target is traditionally viewed as an acceptable surrogate of its in vivo efficacy (Núñez et al., 2012, Drug Disc Today 17: 10). Competition assays, also called displacement or modulation binding assays, are a common approach to measure activity of a ligand at a target receptor (Flanagan 2016, Methods Cell Biol 132: 191). In these assays, standard radioligands acting either as agonists or antagonists are ascribed to specific receptors. […] After incubation, the samples were read on a MicroBeta 2 Microplate Counter (Perkin Elmer). […] Equilibrium binding constants for ketanserin (Kd) were determined from saturation binding curves using the ‘one-site saturation binding analysis’ method of GraphPad PRISM software (Version 9.2.0). […] Ki values were calculated from the competition displacement data using the competitive binding analysis from GraphPad PRISM software. […] Specific binding in counts per minute (cpm) was calculated by subtracting non-specific binding from total binding. Specific binding (pmol/mg) was calculated from μmol of [^3H]ketanserin bound per mg of protein in the assay. The Kd was calculated by fitting the data with the one-site binding model of PRISM software (version 9.2.0).

[2] = fixed (4 μM) forskolin, decreasing dosages of ligand, FIG. 14D, 14E
[3] = fixed (4 μM) forskolin, decreasing dosages of ligand

T2 sequence (P28223 whole entry): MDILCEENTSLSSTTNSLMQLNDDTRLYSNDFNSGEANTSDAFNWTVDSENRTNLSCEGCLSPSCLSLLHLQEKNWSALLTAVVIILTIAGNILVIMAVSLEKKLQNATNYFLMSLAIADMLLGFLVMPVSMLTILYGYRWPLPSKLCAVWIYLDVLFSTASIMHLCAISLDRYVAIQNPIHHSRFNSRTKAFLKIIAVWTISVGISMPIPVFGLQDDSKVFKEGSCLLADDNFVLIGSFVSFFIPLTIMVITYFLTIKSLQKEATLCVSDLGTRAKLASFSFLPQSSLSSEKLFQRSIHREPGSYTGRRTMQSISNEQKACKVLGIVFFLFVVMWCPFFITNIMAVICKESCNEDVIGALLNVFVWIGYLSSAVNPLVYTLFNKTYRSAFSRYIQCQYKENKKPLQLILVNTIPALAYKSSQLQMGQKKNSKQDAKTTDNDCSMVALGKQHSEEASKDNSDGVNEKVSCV

NCCc1c[nH]c2c(C(=O)O)ccc(O)c12 [compound (VII)]
trend of increasing % cAMP levels with decreasing compound [1]: not observed | 5-HT1A binding activity from % cAMP levels trend (5-HT1A receptor; decreasing dosages of compound, FIG. 14F): 5-HT1A binding activity

NCCc1c[nH]c2ccc(O)cc12 [serotonin]
trend of increasing % cAMP levels with decreasing compound [1]: not observed | 5-HT1A binding activity from % cAMP levels trend (5-HT1A receptor; [2]): 5-HT1A binding activity

CN(C)CCc1c[nH]c2cccc(O)c12 [psilocin]
competition binding curve versus [3H]ketanserin (5-HT2A receptor): binding

N[C@@H](Cc1c[nH]c2ccccc12)C(=O)O [tryptophan]
competition binding curve versus [3H]ketanserin (5-HT2A receptor): no binding | 5-HT1A activity from luminescence (cAMP) trend (5-HT1A receptor; [3]): lack of 5-HT1A activity

COc1ccc(C(=O)O)c2[nH]cc(CCN)c12 [compound (VI)]
trend of increasing % cAMP levels with decreasing compound [1]: not observed | 5-HT1A binding activity from % cAMP levels trend (5-HT1A receptor; [2]): mild 5-HT1A binding activity

CN(C)CCc1c[nH]c2ccccc12 [DMT]
5-HT1A activity from luminescence (cAMP) trend (5-HT1A receptor; [3]): 5-HT1A activity
